Data published in US20190008797A1, “ESTROGEN RECEPTOR ALPHA COLIGANDS, AND METHODS OF USE THEREOF” (priority 2016, published 2019).
Entries after “also recorded” stand apart in the source; their conditions may differ. Like-named read-outs stand apart in the source and are kept apart here.

Assays:
MCF-7 cells = experiment: Flow cytometry of cellular DNA content in MCF-7 cells; format: cell-based, human; details: for IC50: Homo sapiens, MCF7, 24 h
Experimental: The cells were then washed with PBS, detached with trypsin and collected by centrifugation. The cell pellets were washed with cold PBS followed by centrifuge at room temperature and re-suspended in 500 μl PBS containing […] propidium iodide, 0.1% of Triton™ X-100, 0.1% of sodium citrate, and 10 μg/ml of RNase. Samples were then run on Cytomics™ FC-500 (Beckman Coulter) in the cell cytometry facility at UC Berkeley and data was analyzed using FlowJo 7.6.5.

c-MYC = c-MYC mRNA (real-time PCR) and protein (Western blot) in MCF-7 cells; details: greater than tamoxifen
NKG2E promoter = experiment: ChIP of ERα and SRC-2 at the NKG2E promoter in U2OS-ERα cells; format: cell-based, human; details: 2′,3′,4′-THC/E2 combination, 2 hr
Experimental: Cells were fixed with 11X formaldehyde solution for 10 minutes at 37° C. and the reaction was quenched for 2 minutes with 1.25M glycine solution as previously described (Cvoro, A., et al. Distinct Roles of Unliganded and Liganded Estrogen Receptors in Transcriptional Repression. Mol Cell 21, 555-564 (2006)). Cells were washed and collected in collecting buffer (100 mM Tris-HCl pH 9.4 and 10 mM dithiothreitol (DTT)) supplemented with a protease inhibitor cocktail. Pellets were frozen overnight at −80° C. then were thawed on ice and lysed (50 mM Tris pH 7.4, 150 mM NaCl, 10 mM ethylenediaminetetraacetic acid (EDTA), 0.5 mM ethylene glycol tetraacetic acid (EGTA), 0.5% Triton™ X-100 and 1X protease inhibitor cocktail). Cell lysates were centrifuged and cell pellet was resuspended in RIPA buffer. Samples were sonicated and supernatant was collected. Approximately 5% of each sample was taken for input and stored at 4° C. Immune complexes were collected using magnetic sepharose beads (GE Healthcare, Pittsburgh, Pa.) equilibrated in radioimmunoprecipitation assay (RIPA) buffer. Complexes were collected over a period of 3 to 4 hours rotating at 4° C. […]
FIGS. 2a-2f2′, 3′, 4′-THC behaves as a unique coagonist on gene expression in U2OS-ERα cells. […] Expression was assessed by up regulation or down regulation of 3-fold or more and a P-value≤0.05. […]

ERα [1] = molecular target: T1, ERα (Homo sapiens, UniProt P03372); experiment: ERE-tk luciferase transfection assay, U2OS cells cotransfected with ERα; format: cell-based; parameters: expressed in transfected cells; host or cells: U2OS
T1 sequence (P03372 whole entry): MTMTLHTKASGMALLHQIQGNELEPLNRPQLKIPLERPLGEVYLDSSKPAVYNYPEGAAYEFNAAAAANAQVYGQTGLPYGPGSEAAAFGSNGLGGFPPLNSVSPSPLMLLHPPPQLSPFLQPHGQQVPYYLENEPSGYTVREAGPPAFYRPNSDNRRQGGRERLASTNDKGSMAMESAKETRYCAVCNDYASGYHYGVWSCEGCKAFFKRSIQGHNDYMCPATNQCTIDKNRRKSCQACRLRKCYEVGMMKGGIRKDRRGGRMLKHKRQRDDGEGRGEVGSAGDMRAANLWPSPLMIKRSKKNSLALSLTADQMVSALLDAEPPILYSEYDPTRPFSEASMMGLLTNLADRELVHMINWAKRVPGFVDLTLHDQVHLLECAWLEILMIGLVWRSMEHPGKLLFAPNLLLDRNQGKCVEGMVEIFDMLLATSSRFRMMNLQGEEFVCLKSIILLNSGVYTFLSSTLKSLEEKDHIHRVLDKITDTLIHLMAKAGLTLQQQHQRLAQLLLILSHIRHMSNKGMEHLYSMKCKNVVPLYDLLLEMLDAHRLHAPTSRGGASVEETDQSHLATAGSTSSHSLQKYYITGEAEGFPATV
Experimental: (§1) (FIG. 1a) Chemical structure of 2′, 3′, 4′-THC. (FIG. 1b) U2OS cells cotransfected with ERE tk-luciferase and ERα (left panel) or ERβ (right panel). After transfection the cells were treated for 24 hours with 10 nM estradiol and 5 μM 2′, 3′, 4′-THC alone or in combination. Cells were lysed and luciferase activity was measured. RLU is relative light units. Error bars are the Mean±SEM. **P≤0.01. […] The total cellular RNA was extracted and real-time PCR for KRT19 mRNA was performed as described in Materials and Methods. […] Error bars are ±SEM. *P≤0.05, **** P≤0.0001.

mouse uterus = experiment: Uterine weight in intact female mice; format: in vivo; details: intact C57BL/6 female mice, daily intraperitoneal injection
Experimental: 8 week old C57b1/6J female ovariectomized or intact mice were purchased from Jackson Laboratories, Sacramento, Calif. Mice were housed and maintained according to OLAC standard procedures in the NAF facility at UC Berkeley, Calif. All mice were fed a soy-free chow diet 2916.15 (Harlan Laboratories, Livermore, Calif.) starting one week before osmotic pump implantation or 2′, 3′, 4′-THC injection. Pumps Model 2006 were purchased from Alzet and filled with vehicle, 1 μg […], 2 mg of 2′, 3′, 4′-THC or the combination of 2′, 3′, 4′-THC and estradiol. All drugs were dissolved in sterile vehicle consisting of 50% dimethylsulfoxide (DMSO), 25% ETOH and 25% deionized water. Pumps were handled with sterile gloves and filled using a 27 gauge filling tube and 1 mL syringe. All pumps were placed in 1X PBS in 15 mL sterile conical tubes and incubated overnight at 37° . Pumps were surgically implanted into 8 week old C57b1/6J female ovariectomized mice (Jackson Laboratory, Sacramento, Calif.) posterior to the scapula and left for a duration of 4 weeks. Intact mice were injected intraperitoneal with 2′, 3′, 4′-THC every day for 3 weeks. Mice were weighed once a week for the duration of the experiment. The intraperitoneal gonadal fat was removed and weighed. Uterine tissue was collected, fluid drained and then weighed.
FIGS. 5a-5h. 2′, 3′, 4′-THC acts as antagonist in the mouse uterus. […]

U2OS-ERα cells = experiment: NKG2E mRNA real-time PCR in U2OS-ERα cells; format: cell-based, human
Experimental: as §1
(FIGS. 6a, 6b) Gene expression of (FIG. 6a) KRT73 and (FIG. 6b) NKG2E in U2OS-ERα cells treated with 10 nM estradiol, 5 μM 2′, 3′, 4′-THC, 1μM ICI alone or in combination for 24 hours. […] Error bars are ±SEM. […] After transfection, luciferase activities were measured as described in the Methods. RLU is relative light units and the data shown are mean ±SEM. (FIG. 6c). […] After transfection, luciferase activities were measured as described in the Methods. RLU is relative light units and the data shown are mean ±SEM (FIG. 6d).

ERα [2] = molecular target: T1, ERα; experiment: ChIP of ERα recruitment in MCF-7 cells; format: cell-based; parameters: expressed in transfected cells; details: 5 μM + 10 nM E2, 1 hour

SMILES: O=C(/C=C/c1ccccc1)c1ccc(O)c(O)c1O [2′, 3′, 4′-THC, 2′, 3′, 4′-trihydroxychalcone]
- effect on E2-treated cells by DNA content / cell cycle (MCF-7 cells; 24 hours): anti-proliferative action; also recorded: G1 cell cycle arrest
- IC50 (MCF-7 cells; read-out: IC50 for inhibition, G1 phase (cellular DNA content)): 2900 nM
- IC50 (MCF-7 cells; read-out: IC50 for inhibition, S-phase (cellular DNA content)): 2600 nM
- effect on E2-stimulation of c-MYC mRNA (c-MYC; 5 μM + 10 nM E2, 4 hours): inhibited
- effect on E2-stimulation of c-MYC protein levels (c-MYC; increasing doses + 10 nM E2, 1 hour): inhibited
- recruitment of ERα to the NKG2E promoter (NKG2E promoter): increased recruitment
- recruitment of SRC-2 to the NKG2E promoter (NKG2E promoter): increased recruitment
- luciferase activity with E2 (ERα [1]; ERα, 5 μM chalcone + 10 nM E2, 24 hours): synergistic increase
- activity on ERE luciferase, compound alone (ERα [1]; U2OS cells transfected with ERα, 5 μM, 24 hours): inactive
- reduction of uterine growth compared to the control mice (mouse uterus): 50%
- NKG2E gene expression, compound alone (U2OS-ERα cells; 10 nM E2, 5 μM 2′,3′,4′-THC, 1 μM tamoxifen or raloxifene, 24 hours): no effect
- synergy in combination with tamoxifen or raloxifene (U2OS-ERα cells; 5 μM + 1 μM tamoxifen or raloxifene): No synergy
- effect on E2-induced NKG2E gene expression (U2OS-ERα cells; in combination with 10 nM E2, 24 hours): synergistic activation
- effect on E2 induced ERα binding to the c-MYC enhancer (ERα [2]): inhibited
- effect on recruitment of ERα to the KRT19 ERE (ERα [2]): did not have a significant effect
